pIC50: −log10 of the molar value.

These results are taken from ChEMBL document CHEMBL2440050 (ACS Med Chem Lett, 2013).

Assay [1] deals with L1210. In words: Growth inhibition of mouse L1210 cells after 72 hrs by phosphatase assay. In kind it is functional, cell-based. To be noted: L1210, 72 h.
The test system of assay [2] is HCT-116. The assay can be described thus: Growth inhibition of vinblastine-sensitive human HCT116 cells after 72 hrs by phosphatase assay. The settings on record: HCT-116, 72 h. The assay is classed as functional, cell-based.
Assay [3] is described as follows: Ratio of vinblastine IC50 to compound IC50 for human SW403 cells by MTS assay. The assay is classed as functional.
Assay [4] has as its system HCT-116. The assay can be described thus: Ratio of vinblastine IC50 to compound IC50 for vinblastine-sensitive human HCT116 cells by phosphatase assay. In kind it is functional.
The nature of assay [5]: Ratio of vinblastine IC50 to compound IC50 for human LNCaP-FGC cells by MTS assay. In kind it is functional. (Tetrazolium dyes change colour on reduction, which living cells bring about.)
In assay [6] the test system is HCC1143. The assay can be described thus: Ratio of vinblastine IC50 to compound IC50 for human HCC1143 cells by MTS assay. The assay is classed as functional.
Assay [7] relates to AU565. In words: Ratio of vinblastine IC50 to compound IC50 for human AU565 cells by MTS assay. The assay is classed as functional.
The test system of assay [8] is HCT-116. The assay can be described thus: Ratio of vinblastine IC50 to compound IC50 for vinblastine-sensitive human HCT116 cells by MTS assay. The assay is classed as functional.
Assay [9] in a line: Growth inhibition of human SW403 cells after 72 hrs by MTS assay. In kind it is functional, cell-based. The settings on record: SW-403, 72 h.
Assay [10] concerns HCT-116/VM46. The assay can be described thus: Growth inhibition of vinblastine-resistant human HCT116/VM46 cells overexpressing P-gp after 72 hrs by MTS assay. In kind it is functional, cell-based. The settings on record: HCT-116/VM46, 72 h.
Assay [11] in a line: Growth inhibition of human KPL4 cells after 72 hrs by MTS assay. In kind it is functional, cell-based. The settings on record: KPL4, 72 h.
Assay [12] deals with NCI-H520. The assay can be described thus: Growth inhibition of human NCI-H520 cells after 72 hrs by MTS assay. The assay is classed as functional, cell-based. The settings on record: NCI-H520, 72 h.
In assay [13] the test system is MDA-MB-468. In words: Growth inhibition of human MDA-MB-468 cells after 72 hrs by MTS assay. The assay is classed as functional, cell-based. To be noted: MDA-MB-468, 72 h.
Assay [14] concerns ZR-75-1. In words: Ratio of vinblastine IC50 to compound IC50 for human ZR-75-1 cells by MTS assay. In kind it is functional.
The test system of assay [15] is MDA-MB-468. The assay can be described thus: Ratio of vinblastine IC50 to compound IC50 for human MDA-MB-468 cells by MTS assay. In kind it is functional.
The subject of assay [16] is NCI-H520. The assay can be described thus: Ratio of vinblastine IC50 to compound IC50 for human NCI-H520 cells by MTS assay. In kind it is functional.
For assay [17], the system named is PA-1. In words: Ratio of vinblastine IC50 to compound IC50 for human PA1 cells by MTS assay. In kind it is functional.
Assay [18] relates to HCT-116. The assay can be described thus: Ratio of IC50 for vinblastine-resistant human HCT116/VM46 cells overexpressing P-gp to IC50 for vinblastine-sensitive human HCT116 cells by phosphatase assay. In kind it is functional.
In assay [19] the test system is HCC70. The assay can be described thus: Ratio of vinblastine IC50 to compound IC50 for human HCC70 cells by MTS assay. The assay is classed as functional.
A further assay has as its system LS174T. In words: Ratio of vinblastine IC50 to compound IC50 for human LS 174T cells by MTS assay. In kind it is functional.
The test system of assay [20] is HCT-116/VM46. The assay can be described thus: Ratio of vinblastine IC50 to compound IC50 for vinblastine-resistant human HCT116/VM46 cells overexpressing P-gp by MTS assay. The assay is classed as functional.
For assay [21], the system named is T47D. In words: Ratio of vinblastine IC50 to compound IC50 for human T47D cells by MTS assay. In kind it is functional.
A further assay concerns MCF7. In words: Growth inhibition of human MCF7 cells after 72 hrs by MTS assay. To be noted: MCF7, 72 h. The assay is classed as functional, cell-based.
Assay [22] relates to PA-1. The assay can be described thus: Growth inhibition of human PA1 cells after 72 hrs by MTS assay. The assay is classed as functional, cell-based. To be noted: PA-1, 72 h.
Assay [23] concerns HCT-116. The assay can be described thus: Growth inhibition of vinblastine-sensitive human HCT116 cells after 72 hrs by MTS assay. In kind it is functional, cell-based. To be noted: HCT-116, 72 h.
For assay [24], the system named is T47D. In words: Growth inhibition of human T47D cells after 72 hrs by MTS assay. In kind it is functional, cell-based.
Assay [25] in a line: Growth inhibition of human LNCaP-FGC cells after 72 hrs by MTS assay. In kind it is functional, cell-based. The settings on record: LNCaP-Clone-FGC.
The subject of assay [26] is L1210. In words: Ratio of vinblastine IC50 to compound IC50 for mouse L1210 cells by phosphatase assay. In kind it is functional.
Assay [27] in a line: Growth inhibition of human LS 174T cells after 72 hrs by MTS assay. The assay is classed as functional, cell-based. The settings on record: LS174T.
Assay [28] deals with ZR-75-1. In words: Growth inhibition of human ZR-75-1 cells after 72 hrs by MTS assay. In kind it is functional, cell-based. The settings on record: ZR-75-1, 72 h.
The test system of assay [29] is HCC70. The assay can be described thus: Growth inhibition of human HCC70 cells after 72 hrs by MTS assay. In kind it is functional, cell-based. The settings on record: HCC70, 72 h.
In assay [30] the test system is HCT-116/VM46. In words: Ratio of vinblastine IC50 to compound IC50 for vinblastine-resistant human HCT116/VM46 cells overexpressing P-gp by phosphatase assay. In kind it is functional.
For assay [31], the system named is HCT-116/VM46. The assay can be described thus: Growth inhibition of vinblastine-resistant human HCT116/VM46 cells overexpressing P-gp after 72 hrs by phosphatase assay. In kind it is functional, cell-based. The settings on record: HCT-116/VM46, 72 h.
In assay [32] the test system is AU565. In words: Growth inhibition of human AU565 cells after 72 hrs by MTS assay. In kind it is functional, cell-based. To be noted: AU565, 72 h.
Assay [33] can be described thus: Ratio of vinblastine IC50 to compound IC50 for human KPL4 cells by MTS assay. In kind it is functional.
The subject of assay [34] is HCC1143. The assay can be described thus: Growth inhibition of human HCC1143 cells after 72 hrs by MTS assay. The settings on record: HCC1143, 72 h. In kind it is functional, cell-based.
In a further assay the target is Tubulin (Sus scrofa) (UniProt P02554+P02550). In words: Displacement of [3H]-VBL from porcine tubulin after 60 mins relative to control. In kind it is protein assay.
Tubulin (Sus scrofa), sequence (P02550 whole entry, looked up): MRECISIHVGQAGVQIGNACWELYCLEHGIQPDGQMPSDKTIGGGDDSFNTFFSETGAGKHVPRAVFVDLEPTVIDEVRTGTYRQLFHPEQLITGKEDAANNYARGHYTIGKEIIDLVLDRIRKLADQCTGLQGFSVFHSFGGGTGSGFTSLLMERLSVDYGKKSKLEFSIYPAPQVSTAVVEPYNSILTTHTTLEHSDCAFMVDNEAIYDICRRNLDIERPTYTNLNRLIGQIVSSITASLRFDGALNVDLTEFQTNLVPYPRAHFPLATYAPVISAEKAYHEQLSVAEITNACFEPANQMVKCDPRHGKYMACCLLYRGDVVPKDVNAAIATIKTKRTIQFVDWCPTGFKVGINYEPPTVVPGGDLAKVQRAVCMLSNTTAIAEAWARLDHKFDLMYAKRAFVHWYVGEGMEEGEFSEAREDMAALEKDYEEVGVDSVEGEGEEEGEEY
Tubulin (Sus scrofa), sequence (P02554 whole entry, looked up): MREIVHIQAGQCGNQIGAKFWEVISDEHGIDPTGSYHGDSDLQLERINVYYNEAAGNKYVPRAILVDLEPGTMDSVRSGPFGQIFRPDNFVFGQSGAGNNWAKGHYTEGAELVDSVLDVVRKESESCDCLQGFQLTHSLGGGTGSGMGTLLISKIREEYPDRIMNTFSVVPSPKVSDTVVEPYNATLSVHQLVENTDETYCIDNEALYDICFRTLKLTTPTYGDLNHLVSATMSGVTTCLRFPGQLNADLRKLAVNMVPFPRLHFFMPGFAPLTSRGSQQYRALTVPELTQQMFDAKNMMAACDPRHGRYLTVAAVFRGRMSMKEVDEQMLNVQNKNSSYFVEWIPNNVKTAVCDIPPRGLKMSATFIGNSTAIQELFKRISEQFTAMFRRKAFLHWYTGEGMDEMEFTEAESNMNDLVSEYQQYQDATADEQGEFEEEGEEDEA

The term pIC50 denotes −log10 of the IC50, conventionally taken in molar units. Consider `CC[C@]1(NC(=O)N2CCOCC2)C[C@H]2CN(CCc3c([nH]c4ccccc34)[C@@](C(=O)OC)(c3cc4c(cc3OC)N(C)[C@H]3[C@@](O)(C(=O)OC)[C@H](OC(C)=O)[C@]5(CC)C=CCN6CC[C@]43[C@@H]65)C2)C1`, for which the pIC50 in the assay with L1210 [1] is 8.28.

Take `CC[C@]1(NC(=O)N2CCc3ccccc3C2)C[C@H]2CN(CCc3c([nH]c4ccccc34)[C@@](C(=O)OC)(c3cc4c(cc3OC)N(C)[C@H]3[C@@](O)(C(=O)OC)[C@H](OC(C)=O)[C@]5(CC)C=CCN6CC[C@]43[C@@H]65)C2)C1`: the pIC50 was 9.25 in the assay on HCT-116 [2]; 8.92 in assay [9]; 8.18 in the assay with HCT-116/VM46 [10]; 10.22 in assay [11]; 9.85 with NCI-H520 [12]; 9.92 with MDA-MB-468 [13]. Moreover, the pIC50 with MCF7 is 8.68; with PA-1 [22], 9.72; in the assay on HCT-116 [23], 9.59; in the assay with T47D [24], 9.26; in the assay with L1210 [1], 9.21; in [25], 10.70. Further, the pIC50 was 9.52 in assay [27]; 9.28 with ZR-75-1 [28]; 9.89 in the assay on HCC70 [29]; 8.06 with HCT-116/VM46 [31]; 9.89 with AU565 [32]; 9.80 in the assay with HCC1143 [34]. The “Ratio IC50” value (in [3]; in the assay on HCT-116 [4]; in [5]; in the assay on HCC1143 [6]; in the assay with AU565 [7]; in the assay with HCT-116 [8]) was 10 in each case. In addition, the “Ratio IC50” value came out at 10 in the assay with ZR-75-1 [14]; 10 in the assay on MDA-MB-468 [15]; 10 in the assay on NCI-H520 [16]; 10 in the assay with PA-1 [17]; 13 in the assay with HCT-116 [18]; 10 in the assay on HCC70 [19]. The “Ratio IC50” value is 10 in the assay with LS174T; 10 in the assay on HCT-116/VM46 [20]; 10 in the assay on T47D [21]; 10 in the assay on L1210 [26]; 80 in the assay on HCT-116/VM46 [30]; 10 in assay [33].

As for `CC[C@]1(O)C[C@@H]2CN(CCc3c([nH]c4ccccc34)[C@@](C(=O)OC)(c3cc4c(cc3OC)N(C)[C@H]3[C@@](O)(C(=O)OC)[C@H](OC(C)=O)[C@]5(CC)C=CCN6CC[C@]43[C@@H]65)C2)C1` [VINBLASTINE], the pIC50 in assay [9] is 8.10; in the assay on HCT-116/VM46 [10], less than 6.96; in assay [11], 8.54; in the assay with NCI-H520 [12], 8.35; with MDA-MB-468 [13], 8.34; with MCF7 it was less than 6.96. Further, the pIC50 with PA-1 [22] was 8.34; with T47D [24], 8.30; in [25], 8.29; in assay [27], 7.71; in the assay with ZR-75-1 [28], 8.10; with HCC70 [29], 8.46. Also, the pIC50 with AU565 [32] is 8.40; with HCC1143 [34], 8.42. For the same molecule, the Activity on Tubulin (Sus scrofa) stood at 50%.

For `CC[C@]1(NC(=O)N2CCSCC2)C[C@H]2CN(CCc3c([nH]c4ccccc34)[C@@](C(=O)OC)(c3cc4c(cc3OC)N(C)[C@H]3[C@@](O)(C(=O)OC)[C@H](OC(C)=O)[C@]5(CC)C=CCN6CC[C@]43[C@@H]65)C2)C1`, the results for the pIC50 in the assay with HCT-116 [2], with L1210 [1] and in the assay with HCT-116/VM46 [31] were 9.06, 8.68 and 7.30, respectively.

The molecule `CC[C@]1(NC(=O)NC)C[C@H]2CN(CCc3c([nH]c4ccccc34)[C@@](C(=O)OC)(c3cc4c(cc3OC)N(C)[C@H]3[C@@](O)(C(=O)OC)[C@H](OC(C)=O)[C@]5(CC)C=CCN6CC[C@]43[C@@H]65)C2)C1` showed a pIC50 in the assay with L1210 [1] of 8.23.

On to `CC[C@]1(NC(=O)N2CCC(c3ccccc3)CC2)C[C@H]2CN(CCc3c([nH]c4ccccc34)[C@@](C(=O)OC)(c3cc4c(cc3OC)N(C)[C@H]3[C@@](O)(C(=O)OC)[C@H](OC(C)=O)[C@]5(CC)C=CCN6CC[C@]43[C@@H]65)C2)C1`, for which the pIC50 in the assay on HCT-116 [2] was 8.51; in the assay on L1210 [1] it was 8.28; in the assay on HCT-116/VM46 [31], 7.26.
